Tests used:
[1] = tested on: coaggregation of Fusobacterium nucleatum ssp. polymorphum ATCC10953 with Streptococcus sobrinus B13; assay: Coaggregation inhibition test (precipitation of a clump); assay type: cell-based; set-up: key to Coaggregation inhibition effect: the mixture in which no precipitation of a clump was observed was evaluated that test substance had a coaggregation inhibition effect (+); the mixture in which precipitation was observed was evaluated that the test substance had no coaggregation inhibition effect (−); settings: 200 μL of 2% (wt/vol %) test substance solution, room temperature for 30 minutes; for precipitation due to coaggregation: result in words
Method: (§1) Streptococcus sobrinus B13 was used as cariogenic bacteria, while Fusobacterium nucleatum ssp. polymorphum ATCC10953 was used as bacteria of the genus Fusobacterium.
After inoculation of Streptococcus sobrinus into a brain heart infusion broth, it was cultured at 37° C. for 24 hours under an anaerobic condition. Fusobacterium nucleatum ssp. polymorphum was, on the other hand, inoculated into a GAM bouillon medium and then cultured at 37° C. for 48 hours under an anaerobic condition. After completion of the cultivation, bacteria were collected by centrifugal separation and washed twice with a coaggregation buffer (1 mM tris(hydroxymethyl)aminomethane, 0.1 mM calcium chloride, 0.1 mM magnesium chloride, and 0.15 M sodium chloride). After washing, Fusobacterium nucleatum and Streptococcus sobrinus were adjusted with the coaggregation buffer to give a turbidity (OD: UV-1600, UV-Visible spectrophotometer (product of Shimadzu Corporation)), at wavelength of 600 nm, of 2.0, whereby bacteria suspensions were prepared. Test substances such as a compound represented by the formula (A) were adjusted in advance with the coaggregation buffer to give a concentration of 2% (wt/vol %). Galactose laurate was synthesized in a known manner (Patent Document 2: JP-A-2000-159675). As the other test substances, lactose, galactose, sucrose, glucose, and fructose (each, product of Wako Pure Chemicals), and β-lauryl glucoside, β-lauryl maltoside and sucrose monolaurate (each, product of Dojindo Laboratories) were employed. In the coaggregation test, 400 μL of the suspension of Fusobacterium nucleatum, 200 μL of the suspension of Streptococcus sobrinus, and 200 μL of the 2% (wt/vol %) solution of the test substance were mixed successively by using a No. 2 RIA tube (product of Asahi Techno Glass).

[2] = tested on: coaggregation of Fusobacterium nucleatum ssp. polymorphum ATCC10953 with Streptococcus sobrinus B13; assay: Percent coaggregation by turbidity change (Vmax, OD 600 nm); assay type: cell-based; settings: final concentration 10% (wt/vol %); Vmax of coaggregation buffer control = 100%
Method: as §1
The cariogenic bacteria and bacteria of the genus Fusobacterium were cultured on a brain heart infusion broth (product of Becton, Dickinson and Company) and a GAM broth (product of Nissui Pharmaceutical), respectively, under the conditions of 37° C., and 10% CO2, 10% H2, and 80% N2 during from the logarithmic phase to stationary phase. The respective bacteria were collected by centrifugal separation at 5,000 rpm for 5 minutes. After centrifugal washing (for 5 minutes at 5,000 rpm) three times with a coaggregation buffer (1 mM tris(hydroxymethyl)aminomethane, 0.1 mM calcium chloride, 0.1 mM magnesium chloride, and 0.15 M sodium chloride), they were each adjusted to have a turbidity OD at 600 nm of 2.0.
After addition of 60 μL of each of mannitol, palatinit, erythritol, xylitol, sorbitol and lactitol (product of Wako Pure Chemicals) to a 96-well microtiterplate to give the final concentration of 10% (wt/vol %), 30 μL of the bacteria of the genus Fusobacterium was dispensed and stirred, followed by the addition of 30 μL of the cariogenic bacteria. Then, by using a microplate reader (product of Molecular Devices), the turbidity (OD at 600 nm) was measured at one-minute intervals for 30 minutes and a change ratio Vmax (mOD/min) of the turbidity was calculated. Using the Vmax of a similar mixture containing the coaggregation buffer instead of the test substance as control (100%), the percent coaggregation was calculated. Based on a value thus obtained, the coaggregation reaction was measured.

Q: What does the source list for O=C(CO)[C@@H](O)[C@H](O)[C@H](O)CO [Fructose, fructose]?
A: Coaggregation inhibition effect [1]: −; precipitation due to coaggregation [1]: obvious precipitation due to coaggregation is observed

Q: How did the Coaggregation inhibition effect [1] turn out when O=C[C@H](O)[C@@H](O)[C@@H](O)[C@H](O)CO [Galactose, galactose] was run?
A: +

Q: And the “precipitation due to coaggregation” value [1]?
A: no precipitation due to coaggregation is observed

Q: What does the source list for OC[C@H]1O[C@@H](O[C@H]2[C@H](O)[C@@H](O)C(O)O[C@@H]2CO)[C@H](O)[C@@H](O)[C@H]1O (stereo partly shown) [Lactose, lactose]?
A: Coaggregation inhibition effect [1]: +; precipitation due to coaggregation [1]: no precipitation due to coaggregation is observed

Q: With OC[C@H]1O[C@@](CO)(O[C@H]2O[C@H](CO)[C@@H](O)[C@H](O)[C@H]2O)[C@@H](O)[C@@H]1O [Sucrose, sucrose] as the compound, how does the Coaggregation inhibition effect [1] read?
A: −

Q: And the “precipitation due to coaggregation” value [1]?
A: obvious precipitation due to coaggregation is observed

Q: For OC[C@@H](O)[C@@H](O)CO [erythritol], which percent coaggregation [2] is on record?
A: 35%

Q: How did the percent coaggregation [2] turn out when OC[C@@H](O)[C@@H](O[C@@H]1O[C@H](CO)[C@H](O)[C@H](O)[C@H]1O)[C@H](O)[C@@H](O)CO [lactitol] was run?
A: 0%

Q: For OC[C@@H](O)[C@@H](O)[C@H](O)[C@H](O)CO [mannitol], which percent coaggregation [2] is on record?
A: 16%

Q: OC[C@@H](O)[C@@H](O)[C@H](O)[C@@H](O)CO [sorbitol] was tested. Which percent coaggregation [2] did it give?
A: 62%

Q: For OC[C@@H](O)[C@H](O)[C@@H](O)CO [xylitol], which percent coaggregation [2] is on record?
A: 20%

Q: How did the Coaggregation inhibition effect [1] turn out when CCCCCCCCO[C@H]1O[C@H](CO)[C@H](O)[C@H](O)[C@H]1O [α-Octyl galactoside, α-octyl galactoside] was run?
A: +

Q: And the “precipitation due to coaggregation” value [1]?
A: no precipitation due to coaggregation is observed

Q: With CCCCCCCCCCCCO[C@@H]1O[C@H](CO)[C@@H](O)[C@H](O)[C@H]1O [β-Lauryl glucoside, β-lauryl glucoside] as the compound, how does the Coaggregation inhibition effect [1] read?
A: −

Q: And the “precipitation due to coaggregation” value [1]?
A: obvious precipitation due to coaggregation is observed

Q: With CCCCCCCCCCCCO[C@@H]1O[C@H](CO)[C@@H](O[C@H]2O[C@H](CO)[C@@H](O)[C@H](O)[C@H]2O)[C@H](O)[C@H]1O [β-Lauryl maltoside, β-lauryl maltoside] as the compound, how does the Coaggregation inhibition effect [1] read?
A: −

Q: And the “precipitation due to coaggregation” value [1]?
A: obvious precipitation due to coaggregation is observed

Q: What does the source list for CCCCCCCCCCCCOCCOCCOCCO[C@@H]1O[C@H](CO)[C@H](O)[C@H](O)[C@H]1O [β-Trioxyethylene dodecylgalactoside, β-trioxyethylene lauryl galactoside]?
A: Coaggregation inhibition effect [1]: +; precipitation due to coaggregation [1]: no precipitation due to coaggregation is observed

Q: What does the source list for CCCCCCCCO[C@@H]1O[C@H](CO)[C@H](O)[C@H](O)[C@H]1O [β-octyl galactoside]?
A: Coaggregation inhibition effect [1]: +; precipitation due to coaggregation [1]: no precipitation due to coaggregation is observed

Q: With “Galactose laurate [Galactose monolaurate]” as the compound, how does the Coaggregation inhibition effect [1] read?
A: +

Q: What about the “precipitation due to coaggregation” value [1] of the same compound?
A: no precipitation due to coaggregation is observed

Q: For palatinit, which percent coaggregation [2] is on record?
A: 71%

Q: For sucrose monolaurate, which Coaggregation inhibition effect [1] is on record?
A: −

Q: What about the “precipitation due to coaggregation” value [1] of the same compound?
A: obvious precipitation due to coaggregation is observed

Reference: patent US8834852B2, “Composition for oral cavity” (Kao Corporation, priority 2004, dated 2014)
